Source: ChEMBL document CHEMBL4417631, “Oral peptide inhibitors of interleukin-23 receptor and their use to treat inflammatory bowel diseases” (2017)
*1 amine or outer side, *2 acyl side, *3 side chain or, on linkers, in order; H or OH if unused. Where a SMILES comes first, the peptide text is derived from it. Bridges are numbered along the chain shown (N, C = ends). [ ]: non-standard residue; d: D form. Abu(4-yl) = O=C([C@H](CC[*:3])N[*:1])[*:2]; 2Nal = N[C@@H](Cc1ccc2ccccc2c1)C(=O)O; AEF = NCCOc1ccc(C[C@H](N)C(=O)O)cc1; αMeK = C[C@](N)(CCCCN)C(=O)O; Aib = CC(C)(N)C(=O)O

Columns and labels:
[1] = Half life in DTT at 50 uM up up to 120 mins by reverse phase HPLC and UV detection based assay; assay type: physicochemical
Interleukin-23 receptor [2] = target: T1, Interleukin-23 receptor (Homo sapiens, UniProt Q5VWK5); test: Inhibition of interleukin-23 binding to human interleukin-23 receptor incubated for 2 hrs by competitive binding ELISA
T1 sequence (Q5VWK5 whole entry): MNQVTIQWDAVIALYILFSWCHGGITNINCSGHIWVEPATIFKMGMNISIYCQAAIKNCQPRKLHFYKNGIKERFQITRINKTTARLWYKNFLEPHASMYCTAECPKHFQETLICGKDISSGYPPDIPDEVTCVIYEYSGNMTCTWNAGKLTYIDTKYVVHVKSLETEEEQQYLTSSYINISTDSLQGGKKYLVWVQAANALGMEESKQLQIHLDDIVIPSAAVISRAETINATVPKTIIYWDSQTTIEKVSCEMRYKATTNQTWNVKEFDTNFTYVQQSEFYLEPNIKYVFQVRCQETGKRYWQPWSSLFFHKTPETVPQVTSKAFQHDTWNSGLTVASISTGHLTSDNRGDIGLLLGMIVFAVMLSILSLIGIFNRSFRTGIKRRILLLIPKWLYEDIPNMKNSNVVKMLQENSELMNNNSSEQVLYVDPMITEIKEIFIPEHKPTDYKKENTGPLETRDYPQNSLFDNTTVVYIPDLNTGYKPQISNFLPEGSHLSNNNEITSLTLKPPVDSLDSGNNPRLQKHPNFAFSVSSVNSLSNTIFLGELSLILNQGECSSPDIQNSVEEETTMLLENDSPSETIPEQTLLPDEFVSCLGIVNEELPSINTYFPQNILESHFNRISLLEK

[3] = Half life in simulated intestinal fluid at 20 uM by LC-MS/MS analysis; assay type: ADME
[4] = Inhibition of interleukin-23 binding to rat interleukin-23 receptor incubated for 2 hrs by competitive binding ELISA
Interleukin-23 receptor [5] = target: T1, Interleukin-23 receptor; test: Inhibition of interleukin-23 receptor in human DB cells assessed as reduction in IL-23-stimulated STAT3 phosphorylation incubated for 30 mins by HTRF assay; assay type: cell-based
[6] = Half life in simulated gastric fluid at 20 uM by LC-MS/MS analysis; assay type: ADME
Interleukin-23 receptor [7] = target: T1, Interleukin-23 receptor; test: Inhibition of interleukin-23 receptor in human natural killer cells assessed as reduction in IL23/IL18-induced IFNgamma production incubated for 20 to 24 hrs by ELISA; assay type: cell-based

Row | half-life at 50 µM [1] | IC50 (Interleukin-23 receptor [2]) | half-life at 20 µM [3] | IC50 [4] | IC50 (Interleukin-23 receptor [5]) | half-life at 20 µM [6] | SMILES | IC50 (Interleukin-23 receptor [7])
1 | > 2 h | – | – | – | – | – | CC(=O)N[C@H]1CCSC[C@@H](C(=O)N[C@@H](Cc2ccc(OCCN)cc2)C(=O)N[C@@H](Cc2ccc3ccccc3c2)C(=O)NC2(C(=O)N[C@@H](CCC(=O)O)C(=O)N[C@@H](CC(N)=O)C(=O)N[C@@H](CC(N)=O)C(N)=O)CCOCC2)NC(=O)[C@H](CCC(N)=O)NC(=O)[C@H](Cc2c[nH]c3ccccc23)NC(=O)[C@H]([C@@H](C)O)NC(=O)[C@H](CCC(N)=O)NC1=O | –
2 | < 0.167 h | < 500 nM | – | – | – | – | CC(=O)N[C@@H](CS)C(=O)N[C@@H](CCCNC(=N)N)C(=O)N[C@H](C(=O)N[C@@H](Cc1c[nH]c2ccccc12)C(=O)N[C@@H](CCC(=O)O)C(=O)N[C@@H](CS)C(=O)N[C@@H](Cc1ccc(O)cc1)C(=O)N[C@@H](Cc1c[nH]c2ccccc12)C(=O)N[C@@H](Cc1cnc[nH]1)C(=O)N[C@@H](CCC(=O)O)C(=O)N[C@@H](Cc1ccccc1)C(=O)NCC(N)=O)[C@@H](C)O (Ac-CRTWECYWHEFG-NH2) | –
3 | > 2 h | 25 to 100 nM | < 1 h | 100 to 1000 nM | 25 to 100 nM | – | CC(=O)N[C@H]1CCSC[C@@H](C(=O)N[C@@H](Cc2ccc(O)cc2)C(=O)N[C@@H](Cc2c[nH]c3ccccc23)C(=O)N[C@@H](CCCNC(=N)N)C(=O)N[C@@H](CCCCN)C(=O)N[C@@H](Cc2ccccc2)C(=O)NCC(=O)NCCOCC(=O)N[C@H](CCCCN)C(N)=O)NC(=O)[C@H](CCC(N)=O)NC(=O)[C@H](Cc2c[nH]c3ccccc23)NC(=O)[C@H]([C@@H](C)O)NC(=O)[C@H](CCCNC(=N)N)NC1=O | –
4 | – | < 10 nM | 3 to 6 h | < 10 nM | < 10 nM | 3 to 6 h | CC(=O)N[C@H]1CCSC[C@@H](C(=O)N[C@@H](Cc2ccc(OCCN)cc2)C(=O)N[C@@H](Cc2ccc3ccccc3c2)C(=O)N[C@@](C)(CCCCN)C(=O)N[C@@H](CCC(=O)O)C(=O)N[C@@H](CC(N)=O)C(=O)N[C@@H](CCC(N)=O)C(N)=O)NC(=O)[C@H](CCC(N)=O)NC(=O)[C@H](Cc2c[nH]c3ccccc23)NC(=O)[C@H]([C@@H](C)O)NC(=O)[C@H](CCC(N)=O)NC1=O (Ac-[Abu(4-yl)]QTWQC[AEF][2Nal][αMeK]ENQ-NH2; thioether 1-6) | < 25 nM
5 | – | < 10 nM | 1 to 2 h | 10 to 25 nM | < 10 nM | < 1 h | CC(=O)NCCCC[C@H](NC(=O)C(C)(C)NC(=O)[C@H](Cc1ccc2ccccc2c1)NC(=O)[C@H](Cc1ccc(OCCN)cc1)NC(=O)[C@@H]1CSCC[C@H](NC(C)=O)C(=O)N[C@@H](CCC(N)=O)C(=O)N[C@@H]([C@@H](C)O)C(=O)N[C@@H](Cc2c[nH]c3ccccc23)C(=O)N[C@@H](CCC(N)=O)C(=O)N1)C(=O)N[C@@H](CC(N)=O)C(=O)N[C@@H](C)C(N)=O | < 25 nM
6 | – | < 10 nM | 2 to 3 h | < 10 nM | < 10 nM | 3 to 6 h | CC(=O)NCCCC[C@H](NC(=O)[C@](C)(CC(C)C)NC(=O)[C@H](Cc1ccc2ccccc2c1)NC(=O)[C@H](Cc1ccc(OCCN)cc1)NC(=O)[C@@H](NC(=O)[C@H](CCC(N)=O)NC(=O)[C@H](Cc1c[nH]c2ccccc12)NC(=O)[C@@H](NC(=O)[C@H](CCC(N)=O)NC(=O)[C@@H](NC(C)=O)C(C)(C)S)[C@@H](C)O)C(C)(C)S)C(=O)N[C@@H](CC(N)=O)C(=O)N[C@@H](CC(N)=O)C(N)=O | < 10 nM
7 | 0.167 to 2 h | – | – | – | – | – | CC(=O)N[C@@H](CS)C(=O)N[C@@H](CCC(N)=O)C(=O)N[C@H](C(=O)N[C@@H](Cc1c[nH]c2ccccc12)C(=O)N[C@@H](CCC(N)=O)C(=O)N[C@@H](CS)C(=O)N[C@@H](Cc1ccc(O)cc1)C(=O)N[C@@H](Cc1c[nH]c2ccccc12)C(=O)N[C@@H](CCC(C)C)C(=O)N[C@@H](CCC(=O)O)C(=O)N[C@@H](CC(N)=O)C(=O)NCC(N)=O)[C@@H](C)O | –
8 | > 2 h | 25 to 100 nM | 3 to 6 h | 100 to 1000 nM | 10 to 25 nM | 2 to 3 h | COc1ccc(C[C@H](NC(=O)[C@@H](NC(=O)[C@H](CCC(N)=O)NC(=O)[C@H](Cc2c[nH]c3ccccc23)NC(=O)[C@@H](NC(=O)[C@H](CCC(N)=O)NC(=O)[C@@H](NC(C)=O)C(C)(C)S)[C@@H](C)O)C(C)(C)S)C(=O)N[C@@H](Cc2ccc3ccccc3c2)C(=O)N[C@@](C)(CCCCN)C(=O)N[C@@H](CCC(=O)O)C(=O)N[C@@H](CC(N)=O)C(=O)NCC(N)=O)cc1 | –
9 | – | < 10 nM | > 6 h | 10 to 25 nM | < 10 nM | > 6 h | CC(=O)N[C@H]1CCSC[C@@H](C(=O)N[C@@H](Cc2ccc(OCCN)cc2)C(=O)N[C@@H](Cc2ccc3ccccc3c2)C(=O)N[C@@](C)(CCCCN)C(=O)N[C@@H](CCCCNC(=O)CC(C)C)C(=O)N[C@@H](CC(N)=O)C(=O)NCC(N)=O)NC(=O)[C@H](CCC(N)=O)NC(=O)[C@H](Cc2c[nH]c3ccccc23)NC(=O)[C@H]([C@@H](C)O)NC(=O)[C@H](CCC(N)=O)NC1=O | < 25 nM
10 | – | < 10 nM | 2 to 3 h | < 10 nM | < 10 nM | 1 to 2 h | CC(=O)NCCCC[C@H](NC(=O)[C@@](C)(NC(=O)[C@H](Cc1ccc2ccccc2c1)NC(=O)[C@H](Cc1ccc(OCCN)cc1)NC(=O)[C@@H]1CSCC[C@H](NC(C)=O)C(=O)N[C@@H](CCC(N)=O)C(=O)N[C@@H]([C@@H](C)O)C(=O)N[C@@H](Cc2c[nH]c3ccccc23)C(=O)N[C@@H](CCC(N)=O)C(=O)N1)C(C)C)C(=O)N[C@@H](CC(N)=O)C(=O)NCC(N)=O | < 25 nM
11 | 0.167 to 2 h | – | – | – | – | – | CC(=O)N[C@@H](CS)C(=O)N[C@@H](C)C(=O)N[C@@H](CC(=O)O)C(=O)N[C@@H](Cc1c[nH]c2ccccc12)C(=O)N[C@H](C(=O)N[C@@H](Cc1c[nH]c2ccccc12)C(=O)N[C@@H](CS)C(=O)N[C@@H](Cc1ccc(O)cc1)C(=O)N[C@@H](Cc1c[nH]c2ccccc12)C(=O)N[C@@H](Cc1cnc[nH]1)C(=O)N[C@H](C(=O)N[C@@H](Cc1ccccc1)C(=O)NCC(=O)N[C@@H](C)C(=O)N1CC[C@H]1C(=O)N[C@H](CCCCN)C(N)=O)[C@@H](C)O)C(C)C | –
12 | > 2 h | 25 to 100 nM | 3 to 6 h | 100 to 1000 nM | 10 to 25 nM | – | CC(=O)N[C@H](C(=O)N[C@@H](CCC(N)=O)C(=O)N[C@H](C(=O)N[C@@H](Cc1c[nH]c2ccccc12)C(=O)N[C@@H](CCC(N)=O)C(=O)N[C@H](C(=O)N[C@@H](Cc1ccc(O)cc1)C(=O)N[C@@H](Cc1c[nH]c2ccccc12)C(=O)N[C@@](C)(CC(C)C)C(=O)N[C@@H](CCC(=O)O)C(=O)N[C@@H](CC(N)=O)C(=O)NCC(N)=O)C(C)(C)S)[C@@H](C)O)C(C)(C)S | –
13 | – | < 10 nM | 2 to 3 h | 10 to 25 nM | < 10 nM | 3 to 6 h | CC(=O)N[C@H]1CCSC[C@@H](C(=O)N[C@@H](Cc2ccc(OCCN)cc2)C(=O)N[C@@H](Cc2ccc3ccccc3c2)C(=O)NC(C)(C)C(=O)N[C@@H](CCC(N)=O)C(=O)N[C@@H](CC(N)=O)C(=O)NCC(N)=O)NC(=O)[C@H](CCC(N)=O)NC(=O)[C@H](Cc2c[nH]c3ccccc23)NC(=O)[C@H]([C@@H](C)O)NC(=O)[C@H](CCC(N)=O)NC1=O (Ac-[Abu(4-yl)]QTWQC[AEF][2Nal][Aib]QNG-NH2; thioether 1-6) | < 25 nM
14 | – | < 10 nM | > 6 h | < 10 nM | < 10 nM | > 6 h | CC(=O)NCCCC[C@H](NC(=O)C(C)(C)NC(=O)[C@H](Cc1ccc2ccccc2c1)NC(=O)[C@H](Cc1ccc(OCCN)cc1)NC(=O)[C@@H](NC(=O)[C@H](CCC(N)=O)NC(=O)[C@H](Cc1c[nH]c2ccccc12)NC(=O)[C@@H](NC(=O)[C@H](CC(N)=O)NC(=O)[C@@H](NC(C)=O)C(C)(C)S)[C@@H](C)O)C(C)(C)S)C(=O)N[C@@H](CC(N)=O)C(=O)N[C@@H](CC(N)=O)C(N)=O | < 10 nM
15 | > 2 h | 100 to 1000 nM | < 1 h | – | – | – | CC(=O)N[C@H](C(=O)N[C@@H](CCC(N)=O)C(=O)N[C@H](C(=O)N[C@@H](Cc1c[nH]c2ccccc12)C(=O)N[C@@H](CCC(N)=O)C(=O)N[C@H](C(=O)N[C@@H](Cc1ccc(O)cc1)C(=O)N[C@@H](Cc1c[nH]c2ccccc12)C(=O)N[C@@H](CCC(C)C)C(=O)N[C@@H](CCC(=O)O)C(=O)N[C@@H](CC(N)=O)C(=O)NCC(N)=O)C(C)(C)S)[C@@H](C)O)C(C)(C)S | –
